# Source: BindingDB's records for doi:10.1021/jm010282t (Tohoku Pharmaceutical University, 2001)
# Molecular target: T1, Aromatase (Homo sapiens, UniProt P11511)
# T1 sequence (P11511 whole entry): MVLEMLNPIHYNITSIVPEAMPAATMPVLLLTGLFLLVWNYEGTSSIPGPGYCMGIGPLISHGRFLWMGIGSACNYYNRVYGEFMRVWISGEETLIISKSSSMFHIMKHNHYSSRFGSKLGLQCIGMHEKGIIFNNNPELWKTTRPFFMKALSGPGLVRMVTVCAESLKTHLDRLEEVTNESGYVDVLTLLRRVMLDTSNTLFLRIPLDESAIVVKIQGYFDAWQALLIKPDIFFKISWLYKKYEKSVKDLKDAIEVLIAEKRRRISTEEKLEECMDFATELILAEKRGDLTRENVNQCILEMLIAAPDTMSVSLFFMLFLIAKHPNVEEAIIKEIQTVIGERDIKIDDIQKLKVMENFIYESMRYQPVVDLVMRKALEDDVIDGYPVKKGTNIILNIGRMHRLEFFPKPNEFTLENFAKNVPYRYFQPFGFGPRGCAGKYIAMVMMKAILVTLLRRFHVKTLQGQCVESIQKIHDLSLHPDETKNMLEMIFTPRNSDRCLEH
# Assay: Aromatase Assay
# Conditions: pH 7.5; 37 °C
# Experimental: The enzyme activity was assayed by measuring the 3H-labeled H2O formed from [1beta-3H] Androstenedione during aromatization. After incubation, the reaction was terminated by CHCl3 extraction and centrifugation. Aliquots of the water phase were assayed for the presence of 3H2O by counting using a liquid scintillation spectrometer.
SMILES,IC50 [nM],Ki [nM]
CO[C@H]1CCC[C@@]2(CO)C1=CCC1C2CC[C@]2(C)C(=O)CCC12 (stereo partly drawn) [4beta-Methoxy-19-hydroxyandrost-5-en-17-one],150000,
"C[C@]12CCC3C(C[C@@H](O)C4=CCCC[C@@]43CO)C1CCC2=O (stereo partly drawn) [6beta,19-dihydroxyandrost-4-en-17-one]",940,110
"C[C@]12CCCCC1=CCC1C2CC[C@]2(C)C(=O)CCC12 (stereo partly drawn) [(2R,15S)-2,15-dimethyltetracyclo[8.7.0.0^{2,7}.0^{11,15}]heptadec-7-en-14-one]",660,120
"CC(=O)O[C@@H]1CCC[C@@]2(CO)C1=CCC1C2CC[C@]2(C)C(=O)CCC12 (stereo partly drawn) [(2S,6R,15S)-2-(hydroxymethyl)-15-methyl-14-oxotetracyclo[8.7.0.0^{2,7}.0^{11,15}]heptadec-7-en-6-yl acetate]",11000,
"C[C@]12CCC3C(C[C@H](O)C4=CCCC[C@@]43CO)C1CCC2=O (stereo partly drawn) [(2S,8S,15S)-8-hydroxy-2-(hydroxymethyl)-15-methyltetracyclo[8.7.0.0^{2,7}.0^{11,15}]heptadec-6-en-14-one]",1400,250
"C[C@]12CCC3C(CCC4=CCCC[C@@]43CO)C1CCC2=O (stereo partly drawn) [(2S,15S)-2-(hydroxymethyl)-15-methyltetracyclo[8.7.0.0^{2,7}.0^{11,15}]heptadec-6-en-14-one]",49,5.8
"C[C@]12CCC3C(CC=C4CCCC[C@@]43CO)C1CCC2=O (stereo partly drawn) [(2S,15S)-2-(hydroxymethyl)-15-methyltetracyclo[8.7.0.0^{2,7}.0^{11,15}]heptadec-7-en-14-one]",6900,1000
